Results from paper PMC10419307, “The Effect of Metal Ions (Fe, Co, Ni, and Cu) on the Molecular-Structural, Protein Binding, and Cytotoxic Properties of Metal Pyridoxal-Thiosemicarbazone Complexes” (International Journal of Molecular Sciences, 2023).
Like-named read-outs stand apart in the source and are kept apart here.

Tests used:
[1] = target: T1, bovine serum albumin (BSA) (Bos taurus, UniProt P02769); experiment: Spectrofluorometric titration, binding to BSA; settings: for ΔHb / ΔSb: van't Hoff, 300-310 K
T1 construct: purchased Merck
T1 sequence (P02769 25-607): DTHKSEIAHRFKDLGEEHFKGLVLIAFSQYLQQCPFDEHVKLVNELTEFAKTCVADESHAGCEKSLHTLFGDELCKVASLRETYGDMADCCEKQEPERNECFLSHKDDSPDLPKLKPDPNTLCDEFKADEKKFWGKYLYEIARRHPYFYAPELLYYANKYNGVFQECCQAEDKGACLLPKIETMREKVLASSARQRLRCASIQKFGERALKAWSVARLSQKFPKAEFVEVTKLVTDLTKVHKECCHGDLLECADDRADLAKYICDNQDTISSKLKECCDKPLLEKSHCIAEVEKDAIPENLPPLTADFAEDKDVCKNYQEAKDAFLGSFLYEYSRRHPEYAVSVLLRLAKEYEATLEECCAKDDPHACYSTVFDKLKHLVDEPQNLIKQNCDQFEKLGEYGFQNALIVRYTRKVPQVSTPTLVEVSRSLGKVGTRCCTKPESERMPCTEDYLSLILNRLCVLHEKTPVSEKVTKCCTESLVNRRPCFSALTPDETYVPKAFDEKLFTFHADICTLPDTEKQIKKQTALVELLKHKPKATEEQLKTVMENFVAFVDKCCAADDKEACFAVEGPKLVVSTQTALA
Method: (§1) The binding affinities of complexes towards bovine serum albumin (BSA) and human serum albumin (HSA) were analyzed using the spectrofluorometric measurements on the Cary Eclipse MY2048CH03 instrument. The scan rate was set to 600 nm min^−1, with both slits being 5 nm. The excitation wavelength for BSA was set to 295 nm and for HSA to 280 nm. These wavelengths are characteristic of the tryptophan residues in the active pocket of proteins. The spectra were recorded from 310 to 500 nm. The concentration of both proteins was held constant at 5 × 10^−6 M, and prepared in 1 M phosphate buffer saline of pH 7.4.
(§2) The measurements were repeated at three temperatures (27, 32, and 37 °C) to mimic the body temperature and to allow for the calculation of the thermodynamic parameters of binding using the vant’t Hoff equation (Equation (2)):(2) lnKb=−ΔHb/RT+ΔSb/R where ΔHb, ΔSb, and ΔGb represent the change in the enthalpy, entropy, and free energy of the binding process, respectively.

[2] = target: human serum albumin (HSA) (Homo sapiens, UniProt P02768); experiment: Spectrofluorometric titration, binding to HSA; settings: for ΔHb / ΔSb: van't Hoff, 300-310 K
Chain of human serum albumin (HSA) (P02768 25-609): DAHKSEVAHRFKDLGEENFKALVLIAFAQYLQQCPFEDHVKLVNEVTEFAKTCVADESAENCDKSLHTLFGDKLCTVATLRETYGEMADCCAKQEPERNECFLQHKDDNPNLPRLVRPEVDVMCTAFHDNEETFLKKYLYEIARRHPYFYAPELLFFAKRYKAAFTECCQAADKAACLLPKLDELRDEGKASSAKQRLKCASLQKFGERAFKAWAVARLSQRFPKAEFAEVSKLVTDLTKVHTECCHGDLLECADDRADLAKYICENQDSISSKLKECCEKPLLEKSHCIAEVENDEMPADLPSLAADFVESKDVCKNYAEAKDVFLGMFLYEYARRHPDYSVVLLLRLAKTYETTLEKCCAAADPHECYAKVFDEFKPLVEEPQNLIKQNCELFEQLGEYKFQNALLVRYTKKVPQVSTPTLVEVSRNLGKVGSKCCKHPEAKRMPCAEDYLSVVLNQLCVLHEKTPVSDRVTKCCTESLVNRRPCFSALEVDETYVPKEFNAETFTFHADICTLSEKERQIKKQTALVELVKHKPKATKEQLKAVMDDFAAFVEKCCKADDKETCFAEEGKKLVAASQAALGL
Method: as §1, §2

BSA = target: T2, BSA (Bos taurus, UniProt P02769); experiment: Competitive spectrofluorometric measurements with warfarin; assay type: binding, bovine; settings: for number of binding sites (n), competitive measurements with warfarin: BSA with equimolar warfarin; for BSA subdomain the complex binds to: concluded from competition with warfarin
T2 construct: purchased Merck
T2 sequence (P02769 25-607): as the sequence (P02769 25-607) above
Method: as §1
The competitive measurements were performed in the presence of warfarin, a site-specific marker for BSA subdomain IIA [33]. The equimolar concentrations of BSA and warfarin were prepared (5 × 10^−6 M), and after 30 min of incubation, the titrations using the solutions of the investigated complexes were conducted. The final concentrations of the added complexes were the same as for the previous experiments.

A2780 ovarian cancer [3] = experiment: CV viability assay; assay type: cell-based, Human; settings: 72 h
Method: (§3) Human cell lines (A375 melanoma, MCF-7 breast cancer, HCT116 colorectal carcinoma, A2780 ovarian cancer, and MRC5 lung fibroblasts) were purchased from American Type Culture Collection (Rockville, MD, USA).
(§4) The A2780 cells were cultivated in DMEM, while all of the other cell lines were cultivated in the HEPES-buffered RPMI-1640 medium. The cell culture mediums were supplemented with penicillin (100 units/mL), streptomycin (100 μg/mL), and 10% inactivated FBS. All of the cells were cultivated at 37 °C in a humidified atmosphere with 5% CO2.
(§5) The cells were seeded overnight in 96-well plates: A2780 and MRC-5 8 × 10^3 cells/well, HCT 116 6 × 10^3 cells/well, A375 5 × 10^3 cells/well, and MCF-7 at 10 × 10^3 cells/well [58]. All of the cells were treated with the following concentrations of investigated compounds: 100, 50, 25, 12.5, 6.25, 3.125, and 1.56 μM, except for the A2780 cells, which were treated with the following concentrations for the Cu compound only: 25, 12.5, 6.25, 3.125, 1.56, 0.78, and 0.39 μM. After 72 h of treatment, viability assays were conducted.

A375 melanoma [4] = experiment: CV viability assay; assay type: cell-based, Human; settings: 72 h
Method: as §3, §4, §5

[5] = tested on: HCT116 colorectal carcinoma; experiment: CV viability assay; assay type: cell-based, Human; settings: 72 h
Method: as §3, §4, §5

MCF-7 breast cancer [6] = experiment: CV viability assay; assay type: cell-based, Human; settings: MCF-7, CV, 72 h
Method: as §3, §4, §5

MRC5 lung fibroblasts [7] = experiment: CV viability assay; assay type: cell-based, Human; settings: 72 h
Method: as §3, §4, §5

A2780 ovarian cancer [8] = experiment: MTT viability assay; assay type: cell-based, Human; settings: 72 h
Method: as §3, §4, §5

A375 melanoma [9] = experiment: MTT viability assay; assay type: cell-based, Human; settings: 72 h
Method: as §3, §4, §5

[10] = tested on: HCT116 colorectal carcinoma; experiment: MTT viability assay; assay type: cell-based, Human; settings: 72 h
Method: as §3, §4, §5

MCF-7 breast cancer [11] = experiment: MTT viability assay; assay type: cell-based, Human; settings: MCF-7, MTT, 72 h
Method: as §3, §4, §5

MRC5 lung fibroblasts [12] = experiment: MTT viability assay; assay type: cell-based, Human; settings: 72 h
Method: as §3, §4, §5

MCF-7 breast cancer [13] = tested on: MCF-7 breast cancer; set-up: method as in PMID 36364539; settings: MCF-7, MTT test; cited from earlier work

SMILES | n (number of binding places) ([1]; T 300 K) | ΔGb ([1]; T 300 K) [kJ/mol] | n (number of binding places) ([1]; T 305 K) | ΔGb ([1]; T 305 K) [kJ/mol] | n (number of binding places) ([1]; T 310 K) | ΔGb ([1]; T 310 K) [kJ/mol] | ΔHb [1] [kJ/mol] | n (number of binding places) ([2]; T 300 K) | ΔGb ([2]; T 300 K) [kJ/mol] | n (number of binding places) ([2]; T 305 K) | ΔGb ([2]; T 305 K) [kJ/mol] | n (number of binding places) ([2]; T 310 K) | ΔGb ([2]; T 310 K) [kJ/mol] | ΔHb [2] [kJ/mol] | ΔSb [2] [J mol^−1 K^−1] | number of binding sites (n), competitive measurements with warfarin (BSA) | BSA subdomain the complex binds to (BSA) | IC50 (A2780 ovarian cancer [3]) [µM] | IC50 (A375 melanoma [4]) [µM] | IC50 [5] [µM] | other results
Cc1[nH+]cc(CO)c(C=NNC(N)=S)c1[O-].O.[Cl-].[Cl-].[Cl-].[Fe+3] [Fe-PLTSC, [Fe(PLTSC)Cl2(H2O)]Cl] | 1.1 | -29.4 | 1.1 | -30.2 | 1.1 | -30.9 | 15.5 | 1.2 | -33.8 | 1.2 | -35.4 | 1.1 | -36.9 | 58.3 | 307 | 1.10 | subdomain IIIA | 93.5 ± 9.2 | > 100 | > 100 | ΔSb [1]: 149 J mol^−1 K^−1; IC50 (MCF-7 breast cancer [6]): > 100 µM; IC50 (MRC5 lung fibroblasts [7]): > 100 µM; IC50 (A2780 ovarian cancer [8]): 86.3 ± 13.1 µM; IC50 (A375 melanoma [9]): > 100 µM; IC50 [10]: > 100 µM; IC50 (MCF-7 breast cancer [11]): > 100 µM; IC50 (MRC5 lung fibroblasts [12]): > 100 µM
Cc1[nH+]cc(CO)c(C=NN=C(N)[S-])c1[O-].Cc1[nH+]cc(CO)c(C=NN=C(N)[S-])c1[O-].O.[Cl-].[Co+3] [Co-PLTSC] | 1.1 | -30.7 | 1.1 | -32.4 | 1.1 | -34.1 | 70.3 | 1.0 | -28.2 | 1.0 | -28.9 | 1.0 | -29.5 | 12.7 | 136 | 1.01 | subdomains IIA and IIB | > 100 | > 100 | > 100 | Binding constant (Kb), competitive measurements with warfarin (BSA; BSA with equimolar warfarin (5 × 10^−6 M), 30 min incubation): 52500 M⁻¹; reduction percentages of the binding constants (BSA; BSA with warfarin vs without warfarin): 10%; IC50 (MCF-7 breast cancer [6]): > 100 µM; IC50 (MRC5 lung fibroblasts [7]): > 100 µM; IC50 (A2780 ovarian cancer [8]): > 100 µM; IC50 (A375 melanoma [9]): > 100 µM; IC50 [10]: > 100 µM; IC50 (MCF-7 breast cancer [11]): > 100 µM; IC50 (MRC5 lung fibroblasts [12]): > 100 µM
N.N.[Cl][Pt][Cl] [cisplatin] | – | – | – | – | – | – | – | – | – | – | – | – | – | – | – | – | – | – | – | – | IC50 (MCF-7 breast cancer [13]): 33.6 ± 4.8 µM
Cc1[nH+]cc(CO)c(C=NNC(N)=S)c1[O-].Cc1[nH+]cc(CO)c(C=NNC(N)=S)c1[O-].O.O=[N+]([O-])[O-].O=[N+]([O-])[O-].[Ni+2] [Ni-PLTSC, Ni-pyridoxal-thiosemicarbazone] | 1.2 | -41.7 | 1.2 | -41.0 | 1.2 | -40.4 | -79.4 | 1.2 | -37.1 | 1.2 | -37.2 | 1.2 | -37.2 | -31.4 | 15.5 | 1.30 | subdomain IIIA | > 100 | > 100 | > 100 | ΔSb [1]: −126 J mol^−1 K^−1; IC50 (MCF-7 breast cancer [6]): > 100 µM; IC50 (MRC5 lung fibroblasts [7]): > 100 µM; IC50 (A2780 ovarian cancer [8]): > 100 µM; IC50 (A375 melanoma [9]): > 100 µM; IC50 [10]: > 100 µM; IC50 (MCF-7 breast cancer [11]): > 100 µM; IC50 (MRC5 lung fibroblasts [12]): > 100 µM
